Square brackets hold non-standard residues; d marks the D form. Peptide text beside a SMILES is read from it. * marks the point of attachment. Orn = NCCC[C@H](N)C(=O)O; Hexanoyl = CCCCCC(=O)*; Aib = CC(C)(N)C(=O)O
How the values were obtained:
human VPAC2 [1] = biological target: T1, human VPAC2 (Homo sapiens, UniProt P41587); test: Filter binding assay, 125I-labeled VIP tracer, VPAC2 membranes; conditions: read-out: Human VPAC2 Receptor Binding (IC50; nM)
T1 construct: expressed in transfected cells
T1 sequence (P41587 24-438): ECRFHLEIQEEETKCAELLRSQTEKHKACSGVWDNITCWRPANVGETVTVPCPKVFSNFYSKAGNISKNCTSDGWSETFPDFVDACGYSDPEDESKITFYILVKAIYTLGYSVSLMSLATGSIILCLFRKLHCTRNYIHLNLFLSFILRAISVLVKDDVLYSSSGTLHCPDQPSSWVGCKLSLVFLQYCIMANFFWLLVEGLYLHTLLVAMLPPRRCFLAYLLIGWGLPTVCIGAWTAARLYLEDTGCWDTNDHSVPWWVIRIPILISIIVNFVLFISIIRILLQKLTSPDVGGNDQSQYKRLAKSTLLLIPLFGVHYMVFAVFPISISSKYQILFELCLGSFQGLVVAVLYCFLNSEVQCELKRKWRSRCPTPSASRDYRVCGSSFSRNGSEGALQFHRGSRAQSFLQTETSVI

rat VPAC1 receptor = biological target: T2, rat VPAC1 receptor (Rattus norvegicus, UniProt P30083); test: DiscoveRx cAMP assay, in vitro potency at rat VPAC1 receptor; type: cell-based; conditions: CHO-PO cells transiently transfected with rat VPAC1; cAMP generation; mean of two independent runs
T2 construct: expressed in transfected cells; host or cells: CHO-PO (transient, Lipofectamine)
T2 sequence (P30083 31-459): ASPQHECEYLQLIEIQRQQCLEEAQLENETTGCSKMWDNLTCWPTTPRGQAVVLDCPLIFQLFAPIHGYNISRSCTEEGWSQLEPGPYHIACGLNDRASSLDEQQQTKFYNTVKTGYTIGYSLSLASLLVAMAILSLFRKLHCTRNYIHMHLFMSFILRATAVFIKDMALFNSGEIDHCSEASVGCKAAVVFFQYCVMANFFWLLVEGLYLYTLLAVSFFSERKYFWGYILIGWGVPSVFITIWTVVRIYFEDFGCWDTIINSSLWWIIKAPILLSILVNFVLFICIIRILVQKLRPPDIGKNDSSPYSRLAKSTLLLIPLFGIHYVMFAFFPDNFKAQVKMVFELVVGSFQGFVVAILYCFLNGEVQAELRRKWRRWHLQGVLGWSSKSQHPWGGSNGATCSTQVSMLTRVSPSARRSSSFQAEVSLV
Experimental: DiscoveRx: CHO-PO cells are transiently transfected with rat VPAC1 or VPAC2 receptor DNA using commercially available transfection reagents (Lipofectamine from Invitrogen). The cells are seeded at a density of 10,000/well in a 96-well plate and are allowed to grow for 3 days in […] culture medium. At day 3, the assay is performed.
On the day of the experiment, the medium is removed. Also, the cells are washed twice. The cells are incubated in assay buffer plus IBMX for 15 minutes at room temperature. Afterwards, the stimuli are added and are dissolved in assay buffer. The stimuli are present for 30 minutes. Then, the assay buffer is gently removed. The cell lysis reagent of the DiscoveRx cAMP kit is added. Thereafter, the standard protocol for developing the cAMP signal as described by the manufacturer is used (DiscoveRx Inc., USA). EC50 values for cAMP generation are calculated from the raw signal or are based on absolute cAMP levels as determined by a standard curve performed on each plate.
Results for each agonist are the mean of two independent runs. Rat VPAC1 and VPAC2 results are only generated using the DiscoveRx assay.

human VPAC1 = biological target: T3, human VPAC1 (Homo sapiens, UniProt P32241); test: Filter binding assay, 125I-labeled VIP tracer, VPAC1 membranes; conditions: read-out: Human VPAC1 Receptor Binding (IC50; nM)
T3 construct: expressed in transfected cells
T3 sequence (P32241 31-457): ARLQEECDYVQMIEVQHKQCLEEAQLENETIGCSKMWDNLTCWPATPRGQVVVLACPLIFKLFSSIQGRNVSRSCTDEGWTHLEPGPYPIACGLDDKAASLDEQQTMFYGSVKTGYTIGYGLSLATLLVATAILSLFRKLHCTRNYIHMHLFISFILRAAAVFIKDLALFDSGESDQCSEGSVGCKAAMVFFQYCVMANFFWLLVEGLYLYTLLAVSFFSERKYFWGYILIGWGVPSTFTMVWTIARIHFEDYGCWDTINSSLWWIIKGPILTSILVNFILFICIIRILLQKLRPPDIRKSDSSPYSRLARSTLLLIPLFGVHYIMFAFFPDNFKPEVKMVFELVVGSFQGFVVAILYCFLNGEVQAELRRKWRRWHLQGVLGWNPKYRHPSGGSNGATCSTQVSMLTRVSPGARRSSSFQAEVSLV

[2] = Rat serum stability (activity remaining, CHO-VPAC2 DiscoveRx read-out); type: in vitro ADME
Summary of the method: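 Peptides preincubated overnight in rat serum at 37 °C without aprotinin versus 4 °C with aprotinin, then tested as 11-point 5× dilutions in duplicate on CHO-VPAC2 cells, 30 min at RT. cAMP measured by DiscoveRx kit against standards; EC50 derived for each aliquot.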

rat VPAC2 receptor = biological target: T4, rat VPAC2 receptor (Rattus norvegicus, UniProt P35000); test: DiscoveRx cAMP assay, in vitro potency at rat VPAC2 receptor; type: cell-based; conditions: CHO-PO cells transiently transfected with rat VPAC2; cAMP generation; mean of two independent runs
T4 construct: expressed in transfected cells; host or cells: CHO-PO (transient, Lipofectamine)
T4 sequence (P35000 23-437): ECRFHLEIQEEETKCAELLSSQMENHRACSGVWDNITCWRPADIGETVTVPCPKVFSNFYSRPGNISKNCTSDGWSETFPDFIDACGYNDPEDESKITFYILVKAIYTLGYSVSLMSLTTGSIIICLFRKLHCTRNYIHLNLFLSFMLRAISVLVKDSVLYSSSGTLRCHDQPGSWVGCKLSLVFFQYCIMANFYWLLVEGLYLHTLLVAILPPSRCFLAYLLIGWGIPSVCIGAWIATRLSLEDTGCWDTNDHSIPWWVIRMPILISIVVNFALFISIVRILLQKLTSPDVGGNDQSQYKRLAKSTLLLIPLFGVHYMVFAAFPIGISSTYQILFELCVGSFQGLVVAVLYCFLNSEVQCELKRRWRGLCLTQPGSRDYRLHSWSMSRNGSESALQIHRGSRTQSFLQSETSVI

human PAC1 = biological target: T5, human PAC1 (Homo sapiens, UniProt P41586); test: Filter binding assay, 125I-labeled PACAP-27 tracer, PAC1 membranes; conditions: read-out: Human PAC1 Receptor Binding (IC50; nM)
T5 construct: expressed in transfected cells
T5 sequence (P41586 21-468): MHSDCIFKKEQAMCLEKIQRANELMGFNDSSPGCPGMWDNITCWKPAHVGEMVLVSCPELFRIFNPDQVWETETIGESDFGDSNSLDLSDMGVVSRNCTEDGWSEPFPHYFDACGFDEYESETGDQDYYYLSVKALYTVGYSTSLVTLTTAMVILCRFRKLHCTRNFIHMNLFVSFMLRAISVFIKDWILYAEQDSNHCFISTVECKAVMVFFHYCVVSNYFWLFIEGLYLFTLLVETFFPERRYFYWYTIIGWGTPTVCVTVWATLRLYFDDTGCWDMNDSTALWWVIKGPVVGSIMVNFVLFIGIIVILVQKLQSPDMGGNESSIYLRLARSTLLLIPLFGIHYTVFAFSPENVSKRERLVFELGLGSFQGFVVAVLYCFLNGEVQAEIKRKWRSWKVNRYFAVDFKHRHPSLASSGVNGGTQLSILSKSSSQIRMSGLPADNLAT

human VPAC2 [3] = biological target: T1, human VPAC2; test: Alpha screen cAMP assay, in vitro potency at human VPAC2 receptor; type: cell-based; conditions: cAMP generation; single result from two analyses in a single run, some values average of more than one experiment

Question: With `CCCCCC(=O)N[C@@H](Cc1c[nH]cn1)C(=O)N[C@@H](CO)C(=O)N[C@@H](CC(=O)O)C(=O)N[C@@H](C)C(=O)N[C@H](C(=O)N[C@@H](Cc1ccccc1)C(=O)N[C@H](C(=O)N[C@@H](CC(=O)O)C(=O)N[C@@H](CC(N)=O)C(=O)N[C@@H](Cc1ccc(O)cc1)C(=O)N[C@H](C(=O)N[C@@H](CCCN)C(=O)N[C@@H](CC(C)C)C(=O)N[C@@H](CCCNC(=N)N)C(=O)NC(C)(C)C(=O)N[C@@H](CCC(N)=O)C(=O)N[C@H](C(=O)N[C@@H](C)C(=O)N[C@@H](C)C(=O)NC(C)(C)C(=O)N[C@@H](CCCCN)C(=O)N[C@@H](Cc1ccc(O)cc1)C(=O)N[C@@H](CC(C)C)C(=O)N[C@@H](CCC(N)=O)C(=O)N[C@@H](CS)C(=O)N[C@H](C(=O)N[C@@H](CCCN)C(=O)N[C@@H](CC(N)=O)C(=O)N[C@@H](CCCN)C(=O)NCC(=O)NCC(=O)N1CCC[C@H]1C(=O)N[C@@H](CO)C(=O)N[C@@H](CO)C(=O)NCC(=O)N[C@@H](C)C(=O)N1CCC[C@H]1C(=O)N1CCC[C@H]1C(=O)N1CCC[C@H]1C(=O)N[C@@H](CO)C(=O)O)[C@@H](C)CC)C(C)C)[C@@H](C)O)[C@@H](C)O)C(C)C` [Agonist P372] (Hexanoyl-HSDAVFTDNYT[Orn]LR[Aib]QVAA[Aib]KYLQCI[Orn]N[Orn]GGPSSGAPPPS-OH; C-terminus assumed) as the compound, how does the IC50 (human VPAC2 [1]) read?
Answer: Its IC50 is 4.82 nM.

Question: And the EC50 (rat VPAC1 receptor)?
Answer: Its EC50 is 1.67 nM.

Question: What about the IC50 (human VPAC1) of the same compound?
Answer: The IC50 was over 3000 nM.

Question: And the “Rat Serum Stability (estimated purity in % after overnight incub.)” value [2]?
Answer: Its value is 13.93%.

Question: And the EC50 (rat VPAC2 receptor)?
Answer: Its EC50 is 0.18 nM.

Question: What about the IC50 (human PAC1) of the same compound?
Answer: Its IC50 is over 25000 nM.

Question: What about the EC50 (human VPAC2 [3]) of the same compound?
Answer: Its EC50 is 0.65 nM.

Question: With `CCCCCC(=O)N[C@@H](Cc1c[nH]cn1)C(=O)N[C@@H](CO)C(=O)N[C@@H](CC(=O)O)C(=O)N[C@@H](C)C(=O)N[C@H](C(=O)N[C@@H](Cc1ccccc1)C(=O)N[C@H](C(=O)N[C@@H](CC(=O)O)C(=O)N[C@@H](CCC(N)=O)C(=O)N[C@@H](Cc1ccc(O)cc1)C(=O)N[C@H](C(=O)N[C@@H](CCCN)C(=O)N[C@@H](CC(C)C)C(=O)N[C@@H](CCCNC(=N)N)C(=O)NC(C)(C)C(=O)N[C@@H](CCC(N)=O)C(=O)N[C@@H](CC(C)C)C(=O)N[C@@H](C)C(=O)N[C@@H](C)C(=O)NC(C)(C)C(=O)N[C@@H](CCCN)C(=O)N[C@@H](Cc1ccc(O)cc1)C(=O)N[C@@H](CC(C)C)C(=O)N[C@@H](CCC(N)=O)C(=O)N[C@@H](CO)C(=O)N[C@H](C(=O)N[C@@H](CCCN)C(=O)N[C@@H](CCCN)C(=O)NCC(=O)NCC(=O)N1CCC[C@H]1C(=O)N[C@@H](CO)C(=O)N[C@@H](CO)C(=O)NCC(=O)N[C@@H](C)C(=O)N1CCC[C@H]1C(=O)N1CCC[C@H]1C(=O)N1CCC[C@H]1C(=O)N[C@@H](CO)C(=O)O)[C@@H](C)CC)[C@@H](C)O)[C@@H](C)O)C(C)C` [Agonist P395] (Hexanoyl-HSDAVFTDQYT[Orn]LR[Aib]QLAA[Aib][Orn]YLQSI[Orn][Orn]GGPSSGAPPPS-OH; C-terminus assumed) as the compound, how does the IC50 (human VPAC2 [1]) read?
Answer: The IC50 was 0.24 nM.

Question: What about the EC50 (rat VPAC1 receptor) of the same compound?
Answer: Its EC50 is 0.35 nM.

Question: What about the EC50 (rat VPAC2 receptor) of the same compound?
Answer: The EC50 was 0.03 nM.

Question: And the IC50 (human PAC1)?
Answer: Its IC50 is over 25000 nM.

Question: And the EC50 (human VPAC2 [3])?
Answer: The EC50 was 0.15 nM.

From patent publication US20080194482A1, “Selective Apac2 Receptor Peptide Agonists” (priority 2005, published 2008)
